Measured values: patent US6252121A, “Metal-ligand complex catalyzed processes” (Union Carbide Chemicals & Plastics Technology Corporation, priority 1999, dated 2001)

Key:
[1] = Partition of polar hydroformylation products, acetonitrile/hexane (GC); format: physicochemical; conditions: hexane/acetonitrile equal volumes
Method: The efficiency of the phase separation can be measured by a partition coefficient Kp of the one or more cyclic products which is defined as follows: [formula]
Solutions of polar hydroformylation products were prepared in acetonitrile. To each solution was added an equal volume of hexane, the mixture was vigorously shaken, allowed to settle and phase separate. The two phases were analyzed for polar aldehydes by gas chromatography.

[2] = Hydroformylation reaction rate of rhodium/ligand catalyst; conditions: 90° C., 300 ppm Rh, ligand/rhodium 20/1
Method: […] A mixture of 1,2,3,6-tetrahydrobenzaldehyde (6 grams) and octane (4 grams, internal standard) was added to the autoclave. The reaction rate was determined by gas chromatographic analyses of the samples taken during the course of reaction.
The procedure described in Example 1 was repeated with the modification of using Ligands B-F in place of Ligand A. The reaction rates for Ligands B-F are summarized in Table 1.

[3] = Relative hydroformylation reaction rates with Ligands C and G-J
Method: […]. A mixture of 1,2,3,6-tetrahydrobenzaldehyde (6 grams) and octane (4 grams, internal standard) was added to the autoclave. The reaction rate was determined by gas chromatographic analyses of the samples taken during the course of reaction.

[4] = Miscibility of reaction products with toluene (Comparative Example); format: physicochemical; conditions: reaction at 100° C. for 24 hours; no spontaneous phase separation
Method: The reaction was carried out at 100° C. for 24 hours. No spontaneous phase separation was observed upon the reaction completion.

[5] = hexane, 100 psi syngas (CO/H2 1:1)
[6] = Tetraglyme, 90° C., L/Rh ratio 20

1,3- and 1,4-cyclohexanedicarboxaldehyde
Kpartition of polar product ([1]; 5 wt. %): 38
Kpartition of polar product ([1]; 10 wt. %): 34
Kpartition of polar product ([1]; 20 wt. %): 35

3-cyano-1-cyclohexanecarboxaldehyde and 4-cyano-1-cyclohexanecarboxaldehyde [cyanocyclohexanecarboxaldehyde]
Kpartition of polar product ([1]; 10 wt. %): 69

CC(C)(c1ccccc1)c1ccc(OP(Oc2ccc(C(C)(C)c3ccccc3)cc2C(C)(C)c2ccccc2)Oc2ccc(C(C)(C)c3ccccc3)cc2C(C)(C)c2ccccc2)c(C(C)(C)c2ccccc2)c1 [Ligand A]
reaction rate [2, 5]: 2.5 mol/L-hr

CC(C)(C)c1ccccc1OP(Oc1ccccc1C(C)(C)C)Oc1ccccc1C(C)(C)C [Ligand B]
reaction rate [2, 5]: 3.4 mol/L-hr

CC(C)(C)c1ccc(OP(Oc2ccc(C(C)(C)C)cc2C(C)(C)C)Oc2ccc(C(C)(C)C)cc2C(C)(C)C)c(C(C)(C)C)c1 [Ligand C]
Relative Rate [3, 6]: 1
reaction rate [2, 5]: 4.0 mol/L-hr
reaction rate ([2]; toluene in place of hexane, 100 psi syngas): 4.4 mol/L-hr

CCC(C)(C)c1ccc(OP(Oc2ccc(C(C)(C)CC)cc2C(C)(C)CC)Oc2ccc(C(C)(C)CC)cc2C(C)(C)CC)c(C(C)(C)CC)c1 [Ligand D]
reaction rate [2, 5]: 3.6 mol/L-hr

CCCCCC(C)(C)c1ccc(OP(Oc2ccc(C(C)(C)CCCCC)cc2C(C)(C)CCCCC)Oc2ccc(C(C)(C)CCCCC)cc2C(C)(C)CCCCC)c(C(C)(C)CCCCC)c1 [Ligand E]
reaction rate [2, 5]: 3.7 mol/L-hr

CCCCCCCCCC(C)(C)c1ccc(OP(Oc2ccc(C(C)(C)CCCCCCCCC)cc2C(C)(C)CCCCCCCCC)Oc2ccc(C(C)(C)CCCCCCCCC)cc2C(C)(C)CCCCCCCCC)c(C(C)(C)CCCCCCCCC)c1 [Ligand F]
reaction rate [2, 5]: 3.3 mol/L-hr

COc1ccc(Op2oc3c(C(C)(C)C)cc(OC)cc3c3cc(OC)cc(C(C)(C)C)c3o2)c(C(C)(C)C)c1 [Ligand G]
Relative Rate [3, 6]: 0.46

CC(C)(C)c1cc(-c2cc(C(C)(C)C)cc(C(C)(C)C)c2Op2oc3ccccc3c3ccccc3o2)c(Op2oc3ccccc3c3ccccc3o2)c(C(C)(C)C)c1 [Ligand H]
Relative Rate ([3]; Tetraglyme, 90° C., L/Rh ratio 4): 0.34

C1CCC(P(C2CCCCC2)C2CCCCC2)CC1 [Ligand I]
Relative Rate ([3]; Tetraglyme, 120° C., L/Rh ratio 5): 0.17

O=S(=O)(O)c1cccc(P(C2CCCCC2)C2CCCCC2)c1 [Ligand J]
Relative Rate ([3]; 1-Methyl-2-pyrrolidinone, 120° C., L/Rh ratio 5): 0.14

tricyclodecane dialdehydes
miscibility with toluene [4]: completely miscible with toluene
